Assay [1] deals with Histone deacetylase (Homo sapiens) (UniProt Q13547+O15379+Q9UBN7+Q92769+Q9UQL6+Q8WUI4+Q9BY41+Q96DB2+P56524+Q9UKV0+Q969S8). Put plainly: Inhibition of HDAC in human RPMI-8226 cells at 10 uM incubated for 8 hrs relative to control. The class given is cell-based.
Assay [2] is described as follows: Antiproliferative activity against human Bortezomib-resistant RPMI-8226 cells assessed as inhibition of cell growth incubated for 72 hrs by XTT assay. It is filed as functional, cell-based. Conditions: Bortezomib-resistant RPMI-8226, 72 h. Background: Formazan colour is commonly taken as a measure of viable cells.
The test system of a further assay is RPMI-8226. Put plainly: Antiproliferative activity against human RPMI-8226 cells assessed as inhibition of cell growth incubated for 72 hrs by XTT assay. The class given is functional, cell-based. The following applies: RPMI-8226, 72 h.
The target in another assay is Ephrin type-A receptor 2 (Homo sapiens, UniProt P29317). Put plainly: Inhibition of EphA2 (unknown origin) incubated for 30 mins by TR-FRET assay.
Chain of Ephrin type-A receptor 2 (P29317 whole entry): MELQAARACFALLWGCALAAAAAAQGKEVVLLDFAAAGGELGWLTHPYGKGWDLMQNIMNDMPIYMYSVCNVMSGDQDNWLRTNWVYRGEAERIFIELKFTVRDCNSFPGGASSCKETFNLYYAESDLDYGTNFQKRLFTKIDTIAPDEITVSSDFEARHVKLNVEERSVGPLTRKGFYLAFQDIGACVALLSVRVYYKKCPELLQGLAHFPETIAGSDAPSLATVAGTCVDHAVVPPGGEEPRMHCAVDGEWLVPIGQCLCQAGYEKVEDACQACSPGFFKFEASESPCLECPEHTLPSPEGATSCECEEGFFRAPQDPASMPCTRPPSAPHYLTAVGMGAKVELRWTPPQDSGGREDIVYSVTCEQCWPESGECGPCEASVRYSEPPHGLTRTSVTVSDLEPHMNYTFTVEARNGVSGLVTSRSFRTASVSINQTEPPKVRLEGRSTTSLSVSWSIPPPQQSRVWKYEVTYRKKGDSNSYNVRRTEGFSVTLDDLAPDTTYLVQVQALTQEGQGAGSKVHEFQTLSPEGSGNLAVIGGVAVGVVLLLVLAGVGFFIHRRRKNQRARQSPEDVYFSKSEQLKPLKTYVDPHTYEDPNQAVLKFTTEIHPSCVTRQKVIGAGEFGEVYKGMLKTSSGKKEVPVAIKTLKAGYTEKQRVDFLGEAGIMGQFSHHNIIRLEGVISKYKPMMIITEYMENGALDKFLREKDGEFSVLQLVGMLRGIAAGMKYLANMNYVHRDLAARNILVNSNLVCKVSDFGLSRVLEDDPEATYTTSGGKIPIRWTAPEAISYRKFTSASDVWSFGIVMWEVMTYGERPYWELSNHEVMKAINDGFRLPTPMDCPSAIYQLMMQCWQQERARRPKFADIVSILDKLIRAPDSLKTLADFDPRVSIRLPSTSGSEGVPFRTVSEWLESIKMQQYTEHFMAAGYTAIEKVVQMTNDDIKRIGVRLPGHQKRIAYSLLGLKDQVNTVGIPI
For assay [3], the target named is Histone deacetylase. In words: Inhibition of HDAC in human HeLa nuclear extract using Boc-Lys(Ac)-AMC or Boc-Lys(Tfa)-AMC as substrate preincubated for 5 mins followed by substrate addition and measured after 30 mins by fluorescence assay. The class given is cell-free.
Assay [4] concerns K562. In words: Antiproliferative activity against human K562 cells assessed as inhibition of cell growth incubated for 48 hrs by MTT assay. It is filed as functional, cell-based. Conditions: K562, 48 h.
Assay [5] has as its system HCT-116. Put plainly: Antiproliferative activity against human HCT-116 cells assessed as inhibition of cell growth. It is filed as functional, cell-based.
Assay [6] addresses T1, Histone deacetylase 2 (Homo sapiens, UniProt Q92769). Put plainly: Inhibition of HDAC2 (unknown origin).
Assay [7] concerns the target T2, Histone deacetylase 1 (Homo sapiens, UniProt Q13547). In words: Inhibition of HDAC1 (unknown origin).
Another assay deals with KYSE-450. In words: Antiproliferative activity against human KYSE-450 cells assessed as inhibition of cell growth. The class given is functional, cell-based.
A further assay has as its target Tubulin. Put plainly: Inhibition of tubulin polymerization (unknown origin). The class given is protein-complex assay, Homo sapiens.
Assay [8] deals with MGC-803. Put plainly: Antiproliferative activity against human MGC-803 cells assessed as inhibition of cell growth. The class given is functional, cell-based.
In assay [9] the target is T2, Histone deacetylase 1. Put plainly: Inhibition of HDAC1 in human HeLa nuclear extract using Boc-Lys(Ac)-AMC or Boc-Lys(Tfa)-AMC as substrate preincubated for 5 mins followed by substrate addition and measured after 30 mins by fluorescence assay. It is filed as cell-free.
The subject of assay [10] is HCT-116. In words: Antiproliferative activity against human HCT-116 cells assessed as inhibition of cell growth incubated for 48 hrs by MTT assay. It is filed as functional, cell-based. The following applies: HCT-116, 48 h.
The next assay relates to Jurkat. Put plainly: Antiproliferative activity against human Jurkat cells assessed as inhibition of cell growth incubated for 48 hrs by MTT assay. It is filed as functional, cell-based.
Another assay concerns A549. Put plainly: Antiproliferative activity against human A549 cells assessed as inhibition of cell growth incubated for 48 hrs by MTT assay. The class given is functional, cell-based. Conditions: A549, 48 h.
For another assay, the target named is Histone deacetylase 3 (Homo sapiens, UniProt O15379). Put plainly: Inhibition of HDAC3 in human HeLa nuclear extract using Boc-Lys(Ac)-AMC or Boc-Lys(Tfa)-AMC as substrate preincubated for 5 mins followed by substrate addition and measured after 30 mins by fluorescence assay. It is filed as cell-free.
Chain of Histone deacetylase 3 (O15379 whole entry): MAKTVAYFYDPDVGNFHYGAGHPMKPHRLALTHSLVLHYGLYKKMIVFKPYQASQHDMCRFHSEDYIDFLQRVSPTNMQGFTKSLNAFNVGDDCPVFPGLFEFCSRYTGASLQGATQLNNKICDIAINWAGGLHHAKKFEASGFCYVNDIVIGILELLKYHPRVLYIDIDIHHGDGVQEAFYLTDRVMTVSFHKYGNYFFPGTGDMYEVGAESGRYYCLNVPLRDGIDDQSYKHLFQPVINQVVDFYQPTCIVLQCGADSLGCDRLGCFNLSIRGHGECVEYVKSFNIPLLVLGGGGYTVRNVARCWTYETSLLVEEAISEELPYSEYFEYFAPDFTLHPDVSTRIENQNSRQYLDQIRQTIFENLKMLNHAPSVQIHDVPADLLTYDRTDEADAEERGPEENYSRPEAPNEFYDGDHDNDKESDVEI
The subject of another assay is HEL. Put plainly: Antiproliferative activity against human HEL cells assessed as inhibition of cell growth incubated for 48 hrs by MTT assay. It is filed as functional, cell-based.
The test system of assay [11] is HeLa. Put plainly: Antiproliferative activity against human HeLa cells assessed as inhibition of cell growth incubated for 48 hrs by MTT assay. It is filed as functional, cell-based.
Another assay deals with MOLT-4. Put plainly: Antiproliferative activity against human MOLT-4 cells assessed as inhibition of cell growth incubated for 48 hrs by MTT assay. It is filed as functional, cell-based. Conditions: MOLT-4, 48 h.
The next assay relates to PC-3. Put plainly: Antiproliferative activity against human PC-3 cells assessed as inhibition of cell growth incubated for 48 hrs by MTT assay. The class given is functional, cell-based. Conditions: PC-3, 48 h.
Assay [12] addresses T1, Histone deacetylase 2. Put plainly: Inhibition of HDAC2 in human HeLa nuclear extract using Boc-Lys(Ac)-AMC or Boc-Lys(Tfa)-AMC as substrate preincubated for 5 mins followed by substrate addition and measured after 30 mins by fluorescence assay. The class given is cell-free.
Assay [13] concerns the target Histone deacetylase. Put plainly: Inhibition of HDAC (unknown origin). It is filed as protein assay, Homo sapiens.
For the next assay, the system named is MCF7. Put plainly: Cytotoxicity against human MCF7 cells assessed as inhibition of cell growth. The class given is functional, cell-based.
The test system of the next assay is HepG2. Put plainly: Cytotoxicity against human HepG2 cells assessed as inhibition of cell growth. It is filed as functional, cell-based.
For assay [14], the system named is HeLa. Put plainly: Cytotoxicity against human HeLa cells assessed as inhibition of cell growth. The class given is functional, cell-based.
A further assay concerns U-937. In words: Cytotoxicity against human U-937 cells assessed as inhibition of cell growth. The class given is functional, cell-based.
Assay [15] has as its system MGC-803. Put plainly: Cytotoxicity against human MGC-803 cells assessed as inhibition of cell growth. The class given is functional, cell-based.
Assay [16] deals with Protein deacetylase HDAC6 (Homo sapiens, UniProt Q9UBN7). In words: Inhibition of HDAC6 (unknown origin).
Chain of Protein deacetylase HDAC6 (Q9UBN7 whole entry): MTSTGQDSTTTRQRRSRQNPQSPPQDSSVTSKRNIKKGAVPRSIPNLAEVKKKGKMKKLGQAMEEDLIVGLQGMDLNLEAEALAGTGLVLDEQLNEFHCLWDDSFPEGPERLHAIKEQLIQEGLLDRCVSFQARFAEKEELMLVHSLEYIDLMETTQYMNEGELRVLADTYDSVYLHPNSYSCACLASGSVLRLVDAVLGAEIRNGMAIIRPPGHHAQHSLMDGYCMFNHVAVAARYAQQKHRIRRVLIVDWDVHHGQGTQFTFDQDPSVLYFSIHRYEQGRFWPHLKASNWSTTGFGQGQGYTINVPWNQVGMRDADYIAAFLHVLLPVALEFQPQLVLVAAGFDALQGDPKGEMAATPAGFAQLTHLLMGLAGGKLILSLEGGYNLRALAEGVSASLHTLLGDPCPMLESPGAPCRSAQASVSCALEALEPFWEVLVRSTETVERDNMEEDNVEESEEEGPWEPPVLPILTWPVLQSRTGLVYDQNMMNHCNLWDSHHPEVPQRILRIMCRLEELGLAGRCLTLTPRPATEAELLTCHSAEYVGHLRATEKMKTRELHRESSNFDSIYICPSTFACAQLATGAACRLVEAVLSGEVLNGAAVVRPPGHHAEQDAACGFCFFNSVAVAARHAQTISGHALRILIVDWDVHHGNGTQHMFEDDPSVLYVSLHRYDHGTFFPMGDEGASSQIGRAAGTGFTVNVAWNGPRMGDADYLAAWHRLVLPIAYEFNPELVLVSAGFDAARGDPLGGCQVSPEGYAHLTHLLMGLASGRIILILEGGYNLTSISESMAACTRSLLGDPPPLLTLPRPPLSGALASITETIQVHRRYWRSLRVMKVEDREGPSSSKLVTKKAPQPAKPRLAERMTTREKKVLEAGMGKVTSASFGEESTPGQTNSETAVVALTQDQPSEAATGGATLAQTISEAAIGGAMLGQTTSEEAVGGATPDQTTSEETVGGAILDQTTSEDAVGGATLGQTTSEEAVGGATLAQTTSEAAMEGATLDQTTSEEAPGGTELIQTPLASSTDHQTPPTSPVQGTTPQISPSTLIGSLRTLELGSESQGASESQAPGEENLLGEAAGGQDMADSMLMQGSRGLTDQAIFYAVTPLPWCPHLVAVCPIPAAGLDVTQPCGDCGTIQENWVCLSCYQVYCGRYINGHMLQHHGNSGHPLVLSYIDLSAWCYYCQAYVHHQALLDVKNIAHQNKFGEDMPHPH
Assay [17] has as its system K562. Put plainly: Antiproliferative activity against human K562 cells assessed as inhibition of cell growth by MTT assay. The class given is functional, cell-based.

The source of these data is ChEMBL document CHEMBL5625191, “A review of progress in o-aminobenzamide-based HDAC inhibitors with dual targeting capabilities for cancer therapy” (Eur J Med Chem, 2023).

SMILES strings stand for the structures.

T2 sequence (Q13547 whole entry): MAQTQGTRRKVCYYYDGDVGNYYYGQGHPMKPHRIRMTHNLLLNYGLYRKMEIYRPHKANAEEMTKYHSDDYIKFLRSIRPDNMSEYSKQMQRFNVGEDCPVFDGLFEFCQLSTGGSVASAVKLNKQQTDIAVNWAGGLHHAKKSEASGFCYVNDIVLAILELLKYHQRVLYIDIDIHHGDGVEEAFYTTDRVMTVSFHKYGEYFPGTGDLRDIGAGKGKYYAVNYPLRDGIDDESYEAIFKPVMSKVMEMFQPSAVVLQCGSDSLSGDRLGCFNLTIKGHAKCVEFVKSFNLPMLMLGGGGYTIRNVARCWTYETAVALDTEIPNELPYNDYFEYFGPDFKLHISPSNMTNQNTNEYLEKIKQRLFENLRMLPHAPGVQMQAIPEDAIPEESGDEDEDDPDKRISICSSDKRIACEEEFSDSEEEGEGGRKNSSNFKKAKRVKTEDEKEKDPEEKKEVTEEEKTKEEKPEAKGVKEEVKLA
T1 sequence (Q92769 whole entry): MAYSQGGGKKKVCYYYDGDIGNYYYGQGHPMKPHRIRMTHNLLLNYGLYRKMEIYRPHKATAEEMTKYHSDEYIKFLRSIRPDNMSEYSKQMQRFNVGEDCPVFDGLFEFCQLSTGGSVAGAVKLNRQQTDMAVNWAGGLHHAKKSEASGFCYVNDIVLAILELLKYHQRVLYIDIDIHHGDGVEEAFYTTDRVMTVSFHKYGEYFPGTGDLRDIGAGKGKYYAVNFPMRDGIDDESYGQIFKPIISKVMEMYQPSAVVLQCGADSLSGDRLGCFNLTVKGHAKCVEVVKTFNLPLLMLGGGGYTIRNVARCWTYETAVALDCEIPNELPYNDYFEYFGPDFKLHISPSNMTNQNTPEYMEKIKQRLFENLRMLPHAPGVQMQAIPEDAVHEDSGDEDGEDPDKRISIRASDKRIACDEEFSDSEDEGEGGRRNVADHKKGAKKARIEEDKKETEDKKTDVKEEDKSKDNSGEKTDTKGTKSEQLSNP

What is called inhibition is the percentage by which the read-out fell short of the control. A lower inhibition goes with little suppression. Usually IC50 stands for the point on the concentration scale where inhibition reaches its midpoint. In [1], `CC(C)C[C@@H](NC(=O)[C@H](Cc1ccccc1)NC(=O)c1ccc(C(=O)Nc2ccccc2N)cc1)B1OC2CC3CC(C3(C)C)[C@@]2(C)O1` (some centres not stated) registered an inhibition of 33%. Further, the IC50 is 112 nM in [2] and 37.1 nM in the assay with RPMI-8226.
Turning to `Nc1ccccc1NC(=O)Nc1ccc(NC(=O)c2cccnc2)cc1`, the results for the IC50 at Ephrin type-A receptor 2, at Histone deacetylase [3] and in the assay with K562 [4] were 680 nM, 940 nM and 8360 nM, respectively.
With `CN1c2ccc(NCc3ccc(C(=O)Nc4ccccc4N)cc3)cc2C(=O)N2CCc3c([nH]c4ccc(O)cc34)[C@H]21`, the IC50 was 2150 nM in the assay on HCT-116 [5], 2140 nM against Histone deacetylase 2 [6] and 400 nM at Histone deacetylase 1 [7].
In the case of `COc1ccc(CN(C(=O)Cc2ccc(C(=O)Nc3ccccc3N)cc2)c2cc(OC)c(OC)c(OC)c2)cc1O`, the IC50 with KYSE-450 was determined as 254 nM; with HCT-116 [5], 172 nM; against Tubulin, 3640 nM; against Histone deacetylase 1 [7], 525 nM; with MGC-803 [8], 30 nM.
For the compound `Nc1ccccc1NC(=O)CCCCCCCOc1no[n+]([O-])c1S(=O)(=O)c1ccccc1`, the IC50 is 660 nM on Histone deacetylase 1 [9]; 790 nM in the assay on HCT-116 [10]; 470 nM with Jurkat; 1550 nM in the assay on A549; 500 nM against Histone deacetylase 3; 420 nM in the assay with HEL. For the same compound, the IC50 with HeLa [11] was 1560 nM; in the assay on MOLT-4, 720 nM; with PC-3, 1920 nM; at Histone deacetylase 2 [12] it was 1200 nM.
As for `CCN1CCN(c2cc(Nc3ncc(C(=O)Nc4ccccc4N)s3)ncn2)CC1`, at Histone deacetylase [13], the concentration for half-maximal inhibition (IC50) worked out at 15000 nM.
Take `Nc1ccccc1NC(=O)CCCCCOc1no[n+]([O-])c1S(=O)(=O)c1ccccc1`: the half-maximal inhibitory concentration (IC50) at Histone deacetylase 1 [9] amounted to 470 nM; in the assay with HCT-116 [10], 770 nM; in the assay on Jurkat, 770 nM; with A549, 980 nM; on Histone deacetylase 3, 560 nM; in the assay on HEL, 410 nM. The IC50 came to 1500 nM in the assay on HeLa [11], 540 nM in the assay on MOLT-4, 2500 nM in the assay with PC-3 and 1140 nM against Histone deacetylase 2 [12].
As for `COc1cc2c(cc1OCc1ccc(C(=O)Nc3ccccc3N)cc1)CC[C@@H]1[C@H]3CC[C@@H](O)[C@]3(C)CC[C@@H]21`, the IC50 in the assay on MCF7 turned out to be 370 nM; in the assay with HepG2, 370 nM; on Histone deacetylase 2 [6] it was 60 nM; with HeLa [14], 370 nM; in the assay with U-937, 371 nM; in the assay with MGC-803 [15], 370 nM. In [16], this compound registered a half-maximal inhibitory concentration (IC50) of 120 nM.
As for `COc1ccc2[nH]c3c(c2c1)CCN1C(=O)c2cc(NCc4ccc(C(=O)Nc5ccccc5N)cc4)ccc2N(C)[C@H]31`, the IC50 in the assay with HCT-116 [5] came to 7820 nM; at Histone deacetylase 2 [6], 9370 nM; against Histone deacetylase 1 [7], 2660 nM.
Consider `CCN1CCN(c2cc(Nc3ncc(C(=O)Nc4ccc(F)cc4N)s3)ncn2)CC1`, for which the results for the concentration for half-maximal inhibition (IC50) in the assay on K562 [17] and at Histone deacetylase [13] were 2620 nM and 810 nM, respectively.
